The values that follow come from patent publication US8338418B2, “Dual-acting antihypertensive agents” (Theravance, Inc., priority 2008, dated 2012).

One assay addresses T1, NEP enzyme (Homo sapiens, UniProt P08473).
T1 construct: purchased R&D Systems, Minneapolis, Minn; 1182-ZN
Briefly: In vitro NEP enzyme inhibition assay. The format is biochemical. The conditions noted are these: fluorogenic peptide substrate; read-out: pIC50 for the NEP enzyme (converted). As to the method: The inhibitory activities of compounds at human and rat NEP and human ACE were determined using in vitro assays as described below.
Rat NEP was prepared from the kidneys of adult Sprague Dawley rats. Whole kidneys were washed in cold PBS and brought up in ice-cold lysis buffer (1% Triton X-114, 150 mM NaCl, 50 mM Tris pH 7.5; Bordier (1981) J. Biol. Chem. 256:1604-1607) in a ratio of 5 mL of buffer for every gram of kidney. Samples were homogenized using a polytron hand held tissue grinder on ice. Homogenates were centrifuged at 1000×g in a swinging bucket rotor for 5 minutes at 3° C. The pellet was resuspended in 20 mL of ice cold lysis buffer and incubated on ice for 30 minutes. […] Protein concentrations were quantitated using a BCA detection system with BSA as a standard. […]
The assays were performed in 384-well white opaque plates at room temperature using the respective fluorogenic peptides at a concentration of 10 μM in Assay Buffer (50 mM Tris/HCl at 25° C., 100 mM NaCl, 0.01% Tween-20, 1 μM Zn, 0.025% BSA). […] The rat NEP enzyme preparation was used at a concentration that yielded quantitative proteolysis of 3 μM of Mca-RRL within 20 minutes at room temperature. […]
Plates were read on a fluorometer with excitation and emission wavelengths set to 320 nm and 405 nm, respectively. […]

For another assay, the target named is T2, human AT1 receptor (Homo sapiens, UniProt P30556).
T2 construct: expressed in transfected cells; membrane preparation
T2 sequence (P30556 1-359): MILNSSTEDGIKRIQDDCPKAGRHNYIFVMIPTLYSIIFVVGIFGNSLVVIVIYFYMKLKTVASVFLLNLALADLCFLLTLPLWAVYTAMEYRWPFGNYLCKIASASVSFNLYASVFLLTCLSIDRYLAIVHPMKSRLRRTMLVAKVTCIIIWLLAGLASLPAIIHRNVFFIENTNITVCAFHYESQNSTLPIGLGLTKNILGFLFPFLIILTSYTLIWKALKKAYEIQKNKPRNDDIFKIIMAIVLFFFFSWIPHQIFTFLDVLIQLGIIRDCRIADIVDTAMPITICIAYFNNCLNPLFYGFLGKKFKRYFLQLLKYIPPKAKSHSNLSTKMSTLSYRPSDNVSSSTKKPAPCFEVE
Briefly: AT1 radioligand binding assay. The conditions noted are these: [Eu]AngII displacement, CHO-K1 membranes expressing human AT1; read-out: pKi at the AT1 receptor (converted). As to the method:
These in vitro assays were used to assess the ability of test compounds to bind to the AT1 and the AT2 receptors.
Membrane Preparation from Cells Expressing Human AT1 or AT2 Receptors
Chinese hamster ovary (CHO-K1) derived cell lines stably expressing the cloned human AT1 or AT2 receptors, respectively, were grown in HAM's-F12 medium supplemented with 10% fetal bovine serum, 10 μg/ml penicillin/streptomycin, and 500 μg/ml geneticin in a 5% CO2 humidified incubator at 37° C. AT2 receptor expressing cells were grown in the additional presence of 100 nM PD123,319 (AT2 antagonist). When cultures reached 80-95% confluence, the cells were washed thoroughly in PBS and lifted with 5 mM EDTA. Cells were pelleted by centrifugation and snap frozen in MeOH-dry ice and stored at −80° C. until further use.
For membrane preparation, cell pellets were resuspended in lysis buffer (25 mM Tris/HCl pH 7.5 at 4° C., 1 mM EDTA, and one tablet of Complete Protease Inhibitor Cocktail Tablets with 2 mM EDTA per 50 mL buffer (Roche cat. #1697498, Roche Molecular Biochemicals, Indianapolis, Ind.)) and homogenized using a tight-fitting Dounce glass homogenizer (10 strokes) on ice. The homogenate was centrifuged at 1000×g, the supernatant was collected and centrifuged at 20,000×g. […] Protein concentration of the membrane suspension was determined by the method described in Bradford (1976) Anal Biochem. 72:248-54. […]

Each structure is given as a SMILES string. Bounds are passed on as bounds.

T1 sequence (P08473 52-750 limits assumed): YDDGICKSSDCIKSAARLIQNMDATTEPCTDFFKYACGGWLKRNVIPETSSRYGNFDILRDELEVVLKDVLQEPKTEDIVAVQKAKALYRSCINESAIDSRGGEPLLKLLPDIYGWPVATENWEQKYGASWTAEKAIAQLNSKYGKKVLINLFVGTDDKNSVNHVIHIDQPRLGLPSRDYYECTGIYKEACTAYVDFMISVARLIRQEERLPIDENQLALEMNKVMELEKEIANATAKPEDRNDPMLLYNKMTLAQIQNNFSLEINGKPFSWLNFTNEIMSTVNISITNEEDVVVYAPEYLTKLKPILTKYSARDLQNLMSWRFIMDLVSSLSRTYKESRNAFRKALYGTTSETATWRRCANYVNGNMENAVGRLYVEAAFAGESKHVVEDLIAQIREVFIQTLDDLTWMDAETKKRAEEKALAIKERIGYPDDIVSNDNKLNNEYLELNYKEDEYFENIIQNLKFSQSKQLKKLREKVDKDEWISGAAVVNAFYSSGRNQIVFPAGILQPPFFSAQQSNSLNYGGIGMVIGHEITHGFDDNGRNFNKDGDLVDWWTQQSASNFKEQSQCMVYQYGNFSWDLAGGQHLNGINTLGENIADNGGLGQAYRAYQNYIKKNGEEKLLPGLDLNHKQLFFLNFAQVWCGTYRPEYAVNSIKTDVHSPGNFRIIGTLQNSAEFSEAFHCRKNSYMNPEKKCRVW

In the case of `CCCCc1nc(C(=O)N[C@@H](CC(=O)NO)Cc2ccccc2)cn1Cc1ccc(C(=O)O)cc1` [Example 1, 4-[4-((R)-1-benzyl-2-hydroxycarbamoylethylcarbamoyl)-2-butyl-imidazol-1-ylmethyl]benzoic Acid], on NEP enzyme, the IC50 is at most 0.1 µM. Also, the Ki at human AT1 receptor is below 10 µM.
